In patent US11279733B2, “Peptide antibiotics” (priority 2017, dated 2022):
Converted amounts (≈) assume the structure as drawn. Where two headings read alike, the source gives them in different places. Positions of bridges follow the written chain, without caps; N, C: chain ends. Non-standard residues stand in square brackets, D forms with d. Residues, ends and D or L forms follow the SMILES beside them. *: point of attachment. Decanoyl(3R-OH) = CCCCCCC[C@@H](O)CC(=O)*; Phe(4-NH2) = Nc1ccc(C[C@H](N)C(=O)O)cc1; Octanoyl(3-OH) = CCCCCC(O)CC(=O)*; X13 = CCCCCCCCCC(O)CC(=O)*; dDab = NCC[C@@H](N)C(=O)O; Dab = NCC[C@H](N)C(=O)O

What was measured:
E. coli ATCC 25922 = settings: ATCC 25922
Procedure, shortened: (§1)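 Mid-log cultures grown in Mueller Hinton broth at 37° C were tested by 2-fold broth microdilution at 5×10^5 CFU/mL final. Compounds were dissolved in water and tested over a final range of 32 to 0.015 μg/mL.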

A. baumannii ATCC 19606 = settings: ATCC 19606
Procedure, shortened: as §1

[1] = system: K. pneumoniae ATCC 700603, MDR; settings: ATCC 700603
Procedure, shortened: as §1

[2] = system: P. aeruginosa GN_043, PmxR
Procedure, shortened: as §1

K. pneumoniae ATCC 13883 = settings: ATCC 13883
Procedure, shortened: as §1

[3] = system: K. pneumoniae ATCC BAA-2146, NDM-1 pos; settings: ATCC BAA-2146
Procedure, shortened: as §1

P. aeruginosa ATCC 27853 = settings: ATCC 27853
Procedure, shortened: as §1

in vitro = settings: human
Procedure: Cytotoxicity of the synthesised peptides was evaluated by comparison with commercially available colistin (polymyxin E), polymyxin B (Sigma chemical Co., St. Louis, Mo., U.S.A.) and synthetic octapeptin C4 by conducting lactate dehydrogenase (LDH) assay. CC50 values calculated based on curve fitting of dose dependent inhibition of cell growth represented the cytotoxicity of the peptide. Human kidney 2 (HK2) cells were seeded as 2000 cells per well in a 384 well cell culture plate in a final volume of 20 μL in DMEM/F12 medium (Invitrogen #11330057), in which 10% of FBS was added. Cells were incubated for 24 hours at 37° C., 5% CO2 to allow cells to attach to the plates. Similar conditions were employed for HEK293 and HepG2 cytotoxicity assays.
Colistin and polymyxin B were tested from a range of 2 mM to 0.9 μM. 120 μL of the 1 mM stock solutions in water of each synthesised peptide were freeze-dried and processed for LDH assay. After freeze-dry procedure, the compounds were reconstituted into 600 μM solutions using culture media. All tested compounds were diluted from 600 μM to 0.27 μM in 3-fold dilutions. Then 20 μL of each dilution was added into 20 uL of culture medium in quadruplicate to reach the final concentrations. The cells were incubated with the compounds for 24 h at 37° C., 5% CO2. After the incubation, 5 μL of culture medium was added to 50 μL of LDH assay buffer and incubated for 1 h at room temperature. The absorbance was read at 450 nm using Polarstar. The data was then analysed by Prism software. […] Nephrotoxicity Assessment in Human Proximal Tubule Cells.

A. baumannii GN_093 PmxR = settings: GN 093 PmxR
Procedure, shortened: as §1

[4] = system: S. aureus ATCC 25923, MSSA; settings: ATCC 25923
Procedure, shortened: as §1

[5] = system: P. aeruginosa GN_105, PmxR; settings: GN 105, PmxR
Procedure, shortened: as §1

[6] = system: K. pneumoniae GN_106, PmxR; settings: GN 106, PmxR
Procedure, shortened: as §1

| SMILES | MIC E. coli ATCC 25922 (E. coli ATCC 25922) [µg/mL] | MIC A. baumannii ATCC 19606 (A. baumannii ATCC 19606) [µg/mL] | MIC K. pneumoniae ATCC 700603, MDR [1] [µg/mL] | MIC P. aeruginosa GN_043, PmxR ([2]; polymyxin-resistant) [µg/mL] | MIC K. pneumoniae ATCC 13883 (K. pneumoniae ATCC 13883) [µg/mL] | MIC K. pneumoniae ATCC BAA-2146, NDM-1 pos [3] [µg/mL] | MIC P. aeruginosa ATCC 27853 (P. aeruginosa ATCC 27853) [µg/mL] | CC50 at 24 h (in vitro) [µM] | MIC A. baumannii GN_093 PmxR (A. baumannii GN_093 PmxR) [µg/mL] | MIC S. aureus ATCC 25923, MSSA [4] [µg/mL] | MIC P. aeruginosa GN_105, PmxR [5] [µg/mL] | MIC K. pneumoniae GN_106, PmxR [6] [µg/mL] | MIC P. aeruginosa GN_043, PmxR [2] [µg/mL] |
| --- | --- | --- | --- | --- | --- | --- | --- | --- | --- | --- | --- | --- | --- |
| CCCCCCC[C@@H](O)CC(=O)N[C@H](CCN)C(=O)N[C@H]1CCNC(=O)[C@H](Cc2ccccc2)NC(=O)[C@H](CCN)NC(=O)[C@H](CCN)NC(=O)[C@H](Cc2ccccc2)NC(=O)[C@@H](Cc2ccccc2)NC(=O)[C@H](CCN)NC1=O [compound 5005, 3(R)OH-nC9CO-D-Dab-cyc[L-Dab-L-Dab-D-Phe-L-Phe-L-Dab-L-Dab-L-Phe]] ({Decanoyl(3R-OH)}-[dDab][Dab][Dab][dF]F[Dab][Dab]F; lactam 2-C) | 8 (≈ 7.19 µM) | >32 | 8 (≈ 7.19 µM) | 2 (≈ 1.8 µM) | 4 (≈ 3.6 µM) | 8 (≈ 7.19 µM) | 2 (≈ 1.8 µM) | 54 | – | – | – | – | – |
| CCCCCC(O)CC(=O)N[C@H](CCN)C(=O)N[C@H]1CCNC(=O)[C@H](CC(C)C)NC(=O)[C@H](CCN)NC(=O)[C@H](CCN)NC(=O)[C@H](CC(C)C)NC(=O)[C@@H](Cc2ccccc2)NC(=O)[C@H](CCN)NC1=O (stereo partly drawn) [compound 5012, 3OH-nC7CO-D-Dab-cyc[L-Dab-L-Dab-D-Phe-L-Leu-L-Dab-L-Dab-L-Leu]] ({Octanoyl(3-OH)}-[dDab][Dab][Dab][dF]L[Dab][Dab]L; lactam 2-C) | 32 (≈ 31.5 µM) | >32 | 16 (≈ 15.7 µM) | – | 8 (≈ 7.87 µM) | 32 (≈ 31.5 µM) | 4 (≈ 3.94 µM) | 130 | >32 | >32 | 4 (≈ 3.94 µM) | >32 | 4 (≈ 3.94 µM) |
| CCCCCCCCCC(O)CC(=O)N[C@H](CCN)C(=O)N[C@H]1CCNC(=O)[C@H](CC(C)C)NC(=O)[C@H](CCN)NC(=O)[C@H](CCN)NC(=O)[C@H](CC(C)C)NC(=O)[C@@H](Cc2ccccc2)NC(=O)[C@H](CCN)NC1=O (stereo partly drawn) [compound 5014, 3OH-nC11CO-D-Dab-cyc[L-Dab-L-Dab-D-Phe-L-Leu-L-Dab-L-Dab-L-Leu]] (X13-[dDab][Dab][Dab][dF]L[Dab][Dab]L; lactam 2-C) | 2 (≈ 1.86 µM) | 8 (≈ 7.46 µM) | 8 (≈ 7.46 µM) | – | 4 (≈ 3.73 µM) | 16 (≈ 14.9 µM) | 4 (≈ 3.73 µM) | 19 | – | 4 (≈ 3.73 µM) | 32 (≈ 29.8 µM) | – | 4 (≈ 3.73 µM) |
| CCCCCCC[C@@H](O)CC(=O)N[C@H](CCN)C(=O)N[C@H]1CCNC(=O)[C@H]([C@@H](C)O)NC(=O)[C@H](Cc2ccc(N)cc2)NC(=O)[C@H](CCN)NC(=O)[C@H](CC(C)C)NC(=O)[C@@H](Cc2ccccc2)NC(=O)[C@H](CCN)NC1=O [compound 5605, 3(R)OH-nC9CO-D-Dab-cyc[L-Dab-L-Dab-D-Phe-L-Leu-L-Dab-L-4NH2Phe-L-Thr]] ({Decanoyl(3R-OH)}-[dDab][Dab][Dab][dF]L[Dab][Phe(4-NH2)]T; lactam 2-C) | 16 (≈ 14.6 µM) | – | 32 (≈ 29.2 µM) | – | 16 (≈ 14.6 µM) | 16 (≈ 14.6 µM) | 8 (≈ 7.31 µM) | 115 | – | – | – | – | – |
| CCCCCCC[C@@H](O)CC(=O)N[C@H](CCN)C(=O)N[C@H]1CCNC(=O)[C@H]([C@@H](C)O)NC(=O)[C@H](CCCNC(=N)N)NC(=O)[C@H](CCN)NC(=O)[C@H](CC(C)C)NC(=O)[C@@H](Cc2ccccc2)NC(=O)[C@H](CCN)NC1=O [compound 5606, 3(R)OH-nC9CO-D-Dab-cyc[L-Dab-L-Dab-D-Phe-L-Leu-L-Dab-L-Arg-L-Thr]] ({Decanoyl(3R-OH)}-[dDab][Dab][Dab][dF]L[Dab]RT; lactam 2-C) | >32 | – | 16 (≈ 14.7 µM) | – | 32 (≈ 29.4 µM) | >32 | 2 (≈ 1.84 µM) | 137 | – | – | – | – | – |
